Entries after “also recorded” stand apart in the source; their conditions may differ.
What was measured:
Hs578T [1] = assay: Loss of spheroid viability after 48-hour exposure, preexisting spheroids, CellTiterGlo 3D; type: cell-based; conditions: Homo sapiens, Hs-578T, N=3, read-out: Cellular IC50 values for loss of spheroid viability after 48-hour exposure (μM ± S.E.M.)
Kuramochi [2] = assay: as above; type: cell-based; conditions: Homo sapiens, N=3, read-out: Cellular IC50 values for loss of spheroid viability after 48-hour exposure (μM ± S.E.M.)
MDA-MB-231 = assay: as above; type: cell-based; conditions: Homo sapiens, MDA-MB-231 spheroids, N=3, read-out: Cellular IC50 values for loss of spheroid viability after 48-hour exposure (μM ± S.E.M.)
OVCAR4 [3] = assay: as above; type: cell-based; conditions: Homo sapiens, OVCAR-4, 48 h, N=3, read-out: Cellular IC50 values for loss of spheroid viability after 48-hour exposure (μM ± S.E.M.)
[4] = molecular target: Recombinant human PTP4A3 phosphatase (Homo sapiens (Human), UniProt O75365); assay: In vitro inhibition of PTP4A3 phosphatase activity (automated enzymatic assay); type: biochemical; conditions: mean of N independent assays, 10-point concentration curves, six replicates; read-out: IC50 (nM) ± SEM
Chain of Recombinant human PTP4A3 phosphatase (O75365 whole entry): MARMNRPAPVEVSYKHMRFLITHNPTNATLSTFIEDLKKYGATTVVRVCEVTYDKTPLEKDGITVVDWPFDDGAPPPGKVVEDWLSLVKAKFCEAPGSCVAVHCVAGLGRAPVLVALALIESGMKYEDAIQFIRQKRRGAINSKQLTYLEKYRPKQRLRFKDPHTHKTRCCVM

[5] = molecular target: recombinant human His6-tagged PTP4A1 (Homo sapiens (Human), UniProt Q93096); assay: In vitro biochemical analysis of PTP4A inhibition, DiFMUP substrate; conditions: for IC50: DiFMUP 12 μM, 25° C., 25 minutes, read-out: IC50 values for Compounds Inhibiting Activity of PTP4A Family Members (mean (nM) ± S.E.M.), PTP4A1
Chain of recombinant human His6-tagged PTP4A1 (Q93096 whole entry): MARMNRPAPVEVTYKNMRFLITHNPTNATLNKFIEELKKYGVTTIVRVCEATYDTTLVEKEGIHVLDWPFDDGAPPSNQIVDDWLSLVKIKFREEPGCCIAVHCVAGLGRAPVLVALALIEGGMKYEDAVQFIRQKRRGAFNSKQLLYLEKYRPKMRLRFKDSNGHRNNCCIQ

[6] = molecular target: recombinant human His6-tagged PTP4A3 (Homo sapiens (Human), UniProt O75365); assay: as above; conditions: for IC50: DiFMUP 12 μM, 25° C., 25 minutes, read-out: IC50 values for Compounds Inhibiting Activity of PTP4A Family Members (mean (nM) ± S.E.M.), PTP4A3; for preference among the PTP4A family members (PTP4A3 versus PTP4A1, PTP4A2), in words: comparison of the IC50 values of Table 4
Chain of recombinant human His6-tagged PTP4A3 (O75365 whole entry): as the sequence (O75365 whole entry) above

[7] = molecular target: recombinant human His6-tagged PTP4A2 (Homo sapiens (Human), UniProt Q12974); assay: as above; conditions: for IC50: DiFMUP 12 μM, 25° C., 25 minutes, read-out: IC50 values for Compounds Inhibiting Activity of PTP4A Family Members (mean (nM) ± S.E.M.), PTP4A2
Chain of recombinant human His6-tagged PTP4A2 (Q12974 whole entry): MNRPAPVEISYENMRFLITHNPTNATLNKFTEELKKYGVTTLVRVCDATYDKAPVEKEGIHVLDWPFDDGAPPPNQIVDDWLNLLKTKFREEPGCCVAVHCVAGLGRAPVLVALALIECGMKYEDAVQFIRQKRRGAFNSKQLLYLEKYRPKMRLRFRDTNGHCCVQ

COV362 [8] = assay: Monolayer cancer cell viability, Alamar blue; type: cell-based; conditions: 48-hour exposure, read-out: EC50 (mean μM ± SEM)
COV362-47R [9] = assay: Monolayer cancer cell viability, Alamar blue; type: cell-based; conditions: COV362-47R monolayer, 48-hour exposure, read-out: EC50 (mean μM ± SEM)
V581 [10] = assay: Spheroid growth viability, CellTiterGlo 3D; type: cell-based; conditions: 48 h, read-out: EC50 (mean μM ± SEM)
MOLT4 (human TALL) = assay: Leukemia/lymphoma cell viability, Alamar blue; type: cell-based; conditions: MOLT-4, 48 h, read-out: EC50 (mean μM ± SEM)
K562 (human CML) = assay: Leukemia/lymphoma cell viability, Alamar blue; type: cell-based; conditions: K562, 48 h, read-out: EC50 (mean μM ± SEM)
[11] = test system: HL60-VCR (drug resistant human APML); assay: Leukemia/lymphoma cell viability, Alamar blue; type: cell-based; conditions: HL60/VCR, 48 h, read-out: EC50 (mean μM ± SEM)
OVSAHO [12] = assay: Spheroid growth viability, CellTiterGlo 3D; type: cell-based; conditions: Homo sapiens, 48 h, read-out: EC50 (mean μM ± SEM)
OVCAR4 [13] = assay: Spheroid growth viability, CellTiterGlo 3D; type: cell-based; conditions: Homo sapiens, OVCAR-4, 48 h, read-out: EC50 (mean μM ± SEM)
C1498 (mouse AML) = assay: Leukemia/lymphoma cell viability, Alamar blue; type: cell-based; conditions: C1498, 48 h, read-out: EC50 (mean μM ± SEM)
Kuramochi [14] = assay: Spheroid growth viability, CellTiterGlo 3D; type: cell-based; conditions: 48 h, read-out: EC50 (mean μM ± SEM)
Hs578T [15] = assay: Monolayer cancer cell viability, Alamar blue; type: cell-based; conditions: Homo sapiens, Hs-578T, 48 h, read-out: EC50 (mean μM ± SEM)
COV362 [16] = assay: Spheroid growth viability, CellTiterGlo 3D; type: cell-based; conditions: 48 hour exposure, read-out: EC50 (mean μM ± SEM)
COV362-47R [17] = assay: Spheroid growth viability, CellTiterGlo 3D; type: cell-based; conditions: COV362-47R spheroid, 48 hour exposure, read-out: EC50 (mean μM ± SEM)
[18] = test system: U937 (human Histiocytic lymphoma); assay: Leukemia/lymphoma cell viability, Alamar blue; type: cell-based; conditions: U-937, 48 h, read-out: EC50 (mean μM ± SEM)
RS4;11 (human BALL) = assay: Leukemia/lymphoma cell viability, Alamar blue; type: cell-based; conditions: RS4-11, 48 h, read-out: EC50 (mean μM ± SEM)
Kasumi (human AML) = assay: Leukemia/lymphoma cell viability, Alamar blue; type: cell-based; conditions: 48 h, read-out: EC50 (mean μM ± SEM)
HL60 (human APML) = assay: Leukemia/lymphoma cell viability, Alamar blue; type: cell-based; conditions: HL-60, 48 h, read-out: EC50 (mean μM ± SEM)
OVCAR4 [19] = assay: Monolayer cancer cell viability, Alamar blue; type: cell-based; conditions: Homo sapiens, OVCAR-4, 48 h, read-out: EC50 (mean μM ± SEM)
MV-4-11 (human AML/ALL) = assay: Leukemia/lymphoma cell viability, Alamar blue; type: cell-based; conditions: MV4-11, 48 h, read-out: EC50 (mean μM ± SEM)
V581 [20] = assay: Monolayer cancer cell viability, Alamar blue; type: cell-based; conditions: 48 h, read-out: EC50 (mean μM ± SEM)
OVSAHO [21] = assay: Monolayer cancer cell viability, Alamar blue; type: cell-based; conditions: Homo sapiens, OVSAHO, 48 h, read-out: EC50 (mean μM ± SEM)

SMILES: N=C1C(=O)NC(=O)c2cc(-c3ccccc3)sc21 [Compound 2, 7-Imino-2-phenylthieno[3,2-c]pyridine-4,6(5H,7H)-dione, reference compound]
- IC50 (Hs578T [1]): 8.48 ± 2.38 µM
- IC50 (Kuramochi [2]): 13.2 ± 0.65 µM
- IC50 (MDA-MB-231): 32.7 ± 7.02 µM
- IC50 (OVCAR4 [3]): 4.42 µM

SMILES: N=C1C(=O)NC(=O)c2cc(-c3ccc(Cl)cc3)sc21 [Compound 9b, 2-(4-Chlorophenyl)-7-iminothieno[3,2-c]pyridine-4,6(5H,7H)-dione]
- IC50 [4]: 41.9 ± 1.15 nM

SMILES: N=C1C(=O)NC(=O)c2cc(-c3ccc(F)cc3)sc21 [Compound 9d, 2-(4-Fluorophenyl)-7-iminothieno[3,2-c]pyridine-4,6(5H,7H)-dione]
- IC50 [4]: 71 ± 2.54 nM

SMILES: CC(C)(C)C(=O)Oc1ccc(-c2cc3c(s2)C(=N)C(=O)NC3=O)cc1 [Compound 9e, 4-(7-Imino-4,6-dioxo-4,5,6,7-tetrahydrothieno[3,2-c]pyridin-2-yl)phenyl pivalate]
- IC50 [4]: 256 ± 12.3 nM

SMILES: N=C1C(=O)NC(=O)c2cc(-c3cccc(C(F)(F)F)c3)sc21 [Compound 9g, 7-Imino-2-(3-(trifluoromethyl)phenyl)thieno[3,2-c]pyridine-4,6(5H,7H)-dione]
- IC50 [4]: 193 ± 6.06 nM

SMILES: N=C1C(=O)NC(=O)c2cc(-c3cccc(Cl)c3)sc21 [Compound 9h, 2-(3-Chlorophenyl)-7-iminothieno[3,2-c]pyridine-4,6(5H,7H)-dione]
- IC50 [4]: 65.7 ± 4.13 nM

SMILES: Cc1cccc(-c2cc3c(s2)C(=N)C(=O)NC3=O)c1 [Compound 9i, 7-Imino-2-(m-tolyl)thieno[3,2-c]pyridine-4,6(5H,7H)-dione]
- IC50 [4]: 53.4 ± 1.46 nM

SMILES: COc1cccc(-c2cc3c(s2)C(=N)C(=O)NC3=O)c1 [Compound 9j, 2-(3-Methoxyphenyl)-7-iminothieno[3,2-c]pyridine-4,6(5H,7H)-dione]
- IC50 [4]: 47.6 ± 2.68 nM

SMILES: N=C1C(=O)NC(=O)c2cc(-c3ccccc3Cl)sc21 [Compound 9k, 2-(2-Chlorophenyl)-7-iminothieno[3,2-c]pyridine-4,6(5H,7H)-dione]
- IC50 [4]: 36.1 ± 1.43 nM
- IC50 (Hs578T [1]): 14.4 ± 4.91 µM
- IC50 (Kuramochi [2]): > 50 µM
- IC50 (MDA-MB-231): > 50 µM
- IC50 (OVCAR4 [3]): 12.3 ± 2.26 µM
- IC50 [5]: 49 ± 5 nM
- IC50 [6]: 36.1 nM
- preference among the PTP4A family members (PTP4A3 versus PTP4A1, PTP4A2), in words [6]: more pronounced preference for PTP4A3

SMILES: N=C1C(=O)NC(=O)c2cc(-c3ccccc3F)sc21 [Compound 9l, 2-(2-Fluorophenyl)-7-iminothieno[3,2-c]pyridine-4,6(5H,7H)-dione]
- IC50 [4]: 53.4 ± 1.46 nM

SMILES: N=C1C(=O)NC(=O)c2cc(-c3ccc(F)c(Cl)c3)sc21 [Compound 9n, 2-(3-Chloro-4-fluorophenyl)-7-iminothieno[3,2-c]pyridine-4,6(5H,7H)-dione]
- IC50 [4]: 67.7 ± 3 nM

SMILES: N=C1C(=O)NC(=O)c2cc(-c3ccc(OCCN4CCOCC4)cc3)sc21 [Compound 9o, 7-Imino-2-(4-(2-morpholinoethoxy)phenyl)thieno[3,2-c]pyridine-4,6(5H, 7H)-dione]
- IC50 [4]: 98.2 ± 2.49 nM
- IC50 (Hs578T [1]): 12 ± 3.84 µM
- IC50 (Kuramochi [2]): > 50 µM
- IC50 (MDA-MB-231): > 50 µM
- IC50 (OVCAR4 [3]): 19.6 ± 4.66 µM
- IC50 [7]: 73.9 ± 10 nM
- IC50 [5]: 43.2 ± 8.5 nM
- IC50 [6]: 98.2 nM
- preference among the PTP4A family members (PTP4A3 versus PTP4A1, PTP4A2), in words [6]: little preference

SMILES: CN1C(=O)C(=N)c2sc(-c3ccccc3)cc2C1=O [Compound 9p, 7-Imino-5-methyl-2-phenylthieno[3,2-c]pyridine-4,6(5H,7H)-dione]
- IC50 [4]: 48.9 ± 12 nM
- IC50 (Hs578T [1]): 10.1 ± 1.93 µM
- IC50 (Kuramochi [2]): 34.1 ± 8.6 µM
- IC50 (MDA-MB-231): 61.5 ± 9.66 µM
- IC50 (OVCAR4 [3]): 11.5 ± 2.38 µM
- IC50 [5]: 133 ± 31.7 nM
- IC50 [6]: 86 nM
- preference among the PTP4A family members (PTP4A3 versus PTP4A1, PTP4A2), in words [6]: more pronounced preference for PTP4A3

SMILES: N=C1C(=O)N(CC2CC2)C(=O)c2cc(-c3ccccc3)sc21 [Compound 9q, 5-(Cyclopropylmethyl)-7-imino-2-phenylthieno[3,2-c]pyridine-4,6(5H,7H)-dione]
- IC50 [4]: 85.7 ± 5.96 nM

SMILES: N=C1C(=O)NC(=O)c2cc(-c3ccc(OCCCCNC(=O)CC45CC6CC(CC(C6)C4)C5)cc3)sc21 [EJR-876-35]
- EC50 (COV362 [8]): 25.7 ± 5.3 µM
- EC50 (COV362-47R [9]): 25.2 ± 6.2 µM
- EC50 (V581 [10]): 44.4 µM
- EC50 (MOLT4 (human TALL)): 1 ± 0.1 µM
- EC50 (K562 (human CML)): 25.6 ± 2.8 µM
- EC50 [11]: 17.7 ± 3.8 µM
- EC50 (OVSAHO [12]): 21.1 ± 2.8 µM
- EC50 (OVCAR4 [13]): 16.7 ± 1.9 µM
- EC50 (C1498 (mouse AML)): 1.2 ± 0.2 µM
- EC50 (Kuramochi [14]): > 50 µM
- EC50 (Hs578T [15]): 6.2 µM
- EC50 (COV362 [16]): 16 ± 3.7 µM
- EC50 (COV362-47R [17]): > 50 µM
- EC50 [18]: 6.87 ± 0.4 µM
- EC50 (RS4;11 (human BALL)): 2.2 ± 0.4 µM
- EC50 (Kasumi (human AML)): 4.3 ± 1.3 µM
- EC50 (HL60 (human APML)): 1.6 ± 0.2 µM
- EC50 (OVCAR4 [19]): 15.5 ± 4.7 µM
- EC50 (MV-4-11 (human AML/ALL)): 4.5 ± 1.8 µM
- EC50 (V581 [20]): > 50 µM
- EC50 (OVSAHO [21]): 18.8 ± 2.2 µM

SMILES: O=c1[nH]c(=O)c2cc(-c3ccccc3)sc2[nH]1 [JMS-038, 6-phenylthieno[2,3-d]pyrimidine-2,4(1H,3H)-dione, reference compound]
- IC50 (Hs578T [1]): > 50 µM
- IC50 (Kuramochi [2]): > 50 µM
- IC50 (MDA-MB-231): > 50 µM
- IC50 (OVCAR4 [3]): > 50 µM
- IC50 [7]: > 1000 nM
- inhibition of PTP4A2 (in words) ([7]; DiFMUP, 25-minute incubation): inactive
- IC50 [5]: > 1000 nM
- inhibition of PTP4A1 (in words) ([5]; DiFMUP, 25-minute incubation): inactive
- IC50 [6]: > 1000 nM
- inhibition of PTP4A3 (in words) ([6]; DiFMUP, 25-minute incubation): failed to inhibit; also recorded: inactive

SMILES: CN1C(=O)C(=O)c2sc(-c3ccccc3)cc2C1=O [NRT-892-04]
- IC50 [4]: 32.2 ± 3.52 nM

— patent US12202839B2, “In-flow photooxygenation of aminothienopyridinones generates PTP4A3 phosphatase inhibitors” (University of Virginia Patent Foundation, priority 2018, dated 2025)
